Test results from patent US20140206678A1, “INHIBITORS OF MTOR KINASE AS ANTI -VIRAL AGENT” (KADMON CORPORATION, LLC, priority 2011, published 2014).

Columns and labels:
HCMV [1] = test: HCMV multistep growth in serum-starved human fibroblasts, cell-free virus by TCID50; format: cell-based, human cytomegalovirus
HCMV [2] = test: GFP marker expression from the HCMV genome (percentage of infected cells); format: cell-based, human cytomegalovirus; settings: 24 hpi; 250 nM
Experimental: FIG. 2. […] Serum-starved confluent fibroblasts were infected with HCMV at a multiplicity of 3 PFU/cell. […] Control cultures received the vehicle in which Torin1 was dissolved (NT). At 2 hpi cells were harvested, and cell-associated viral DNA was quantified by real-time PCR analysis. Error bars represent the standard errors of the means from two independent experiments performed in duplicate. […] The level of IE1 was determined at 6 hpi by a Western blot assay using an IE1-specific monoclonal antibody. The image is representative of two independent experiments. […] The expression of a GFP marker gene present in the viral genome was monitored at 24 h after infection in the presence or absence of drug.

UL99 mRNA = test: UL99 late transcript level by qPCR in HCMV-infected fibroblasts; format: cell-based, human cytomegalovirus; settings: rapamycin 20 nM, Torin1 250 nM; 3 PFU/cell
eIF4F complex and 4EBP1 = test: m7GTP-Sepharose cap-analog binding (eIF4F complex) in HCMV-infected fibroblasts; format: cell-based, human; settings: rapamycin 20 nM, Torin1 250 nM
Experimental: FIG. 4. Rapamycin-resistant mTOR activity is required for 4EBP1 phosphorylation and eIF4F complex integrity during HCMV infection. Serum-starved confluent human fibroblasts were infected with HCMV at a multiplicity of 3 PFU/cell. […] (A) At 48 hpi the phosphorylation status of mTORC1 targets was assessed by Western blot assay by using antibodies to phosphorylated targets (4EBP1-PT^37/46 and rpS6-PS^235/6) and total proteins. Tubulin was assayed as a loading control. (B) Same as above (A) except that cells were harvested at the indicated times. (C and D) After mock infection (M) or infection with HCMV (WT) at a multiplicity of 3 PFU/cell, cultures were harvested at the indicated times. Equivalent amounts of protein from each sample were incubated with m^7GTP-Sepharose, and the isolated protein complexes were analyzed by Western blotting using the indicated antibodies to the eIF4F complex and 4EBP1. In all cases the results are representative of at least two independent experiments. lys, lysate.
The phosphorylation status of 4EBP1 regulates cap-dependent protein translation. Hypophosphorylated 4EBP1 binds to eIF4E and inhibits the formation of the eIF4F complex, while the phosphorylation of 4EBP1 inhibits its interaction with eIF4E. […]

[3] = test system: mTORC1 targets (4EBP1, rpS6); test: Phosphorylation of mTORC1 targets in MCMV-infected MEFs (Western blot); format: cell-based, mouse; settings: Torin1 250 nM; for 4EBP1 phosphorylation: MCMV
4EBP1 = 4EBP1 phosphorylation in HSV-1-infected MEFs (Western blot); format: cell-based, mouse; settings: 8 hpi, 3 PFU/cell
Experimental: FIG. 8. Rapamycin-resistant mTOR activity is required for lytic replication by representative alpha- and gamma-herpesviruses. (A) Confluent serum-starved MEFs were infected at a multiplicity of 0.05 PFU/cell with HSV-1 or γHV68. The amount of virus in cell-free supernatants was determined by the TCID50 method at 72 hpi for HSV-1 (left) and at 6 days post infection for γHV68 (right). Black bars represent vehicle-treated samples (N) (DMSO), gray bars represent rapamycin-treated samples (R) (20 nM), and white bars represent Torin1-treated samples (T) (250 nM). The error bars represent the standard errors of the means from at least two independent experiments. (B) Confluent MEF monolayers were infected with HSV-1 at a multiplicity of 3 PFU/cell. Infected cell lysates were harvested at 8 hpi, and equal amounts of protein were analyzed by Western blotting. (C) WT or 4EBP1-null MEFs were infected with HSV-1 at a multiplicity of 0.05 PFU/cell. The amount of cell-free virus present in the supernatant at 72 hpi was quantified by the TCID50 method. The error bars represent the standard errors of the means from two independent experiments.

[4] = 48 hpi, rapamycin 20 nM, LY294002 20 μM

CCC(=O)N1CCN(c2ccc(-n3c(=O)ccc4cnc5ccc(-c6cnc7ccccc7c6)cc5c43)cc2C(F)(F)F)CC1 [Torin1]
IC50 (HCMV [1]; Human betaherpesvirus 5, Fibroblast, 192 h, read-out: IC50 for blocking production of HCMV progeny): ~60 nM | HCMV replication after removal of drug (HCMV [1]; cells had received 100 nM Torin1, 16 days post infection): completely recovered | HCMV replication after removal of drug (HCMV [1]; cells had received 250 nM drug, 16 days post infection): substantially recovered | HCMV replication after removal of drug (HCMV [1]; cultures initially received 1 mM drug, 16 days post infection): partially recovered | reduction of HCMV yield (HCMV [1]; day 10, rapamycin 20 nM, Torin1 250 nM, 0.05 PFU/cell): about 160 fold | increase in virus yield after reversal of an 8-day Torin1 treatment (HCMV [1]; drug release, 16 days post infection): > 100 fold | percentage of cells expressing GFP marker protein (HCMV [2]): did not alter | levels of UL99 mRNA (UL99 mRNA): decreased | association of 4EBP1 with m7GTP-Sepharose cap analog (eIF4F complex and 4EBP1): substantially increased association | association of eIF4G and eIF4A with the cap analog (eIF4F complex and 4EBP1): reduced association | phosphorylation of 4EBP1 in MCMV-infected MEFs [3, 4]: inhibited | phosphorylation of rpS6 in MCMV-infected MEFs [3, 4]: completely inhibited | 4EBP1 phosphorylation ([3]; Akt1/Akt2-null MEFs): inhibited | 4EBP1 phosphorylation ([3]; Rictor-null MEFs): effectively inhibited | phosphorylation of 4EBP1 during HSV-1 infection (4EBP1): inhibited
